Assay results published in ChEMBL document CHEMBL4613295, “Pyrrolyl Pyrazoles as Non-Diketo Acid Inhibitors of the HIV-1 Ribonuclease H Function of Reverse Transcriptase” (ACS Med Chem Lett, 2020).
Activity calls are given as the source filed them. The calls are words filed in the database; no cut-off is given here.

Columns and labels:
HIV-1 M:B [1] = experiment: Selectivity index, ratio of IC50 for recombinat HIV-1 group M subtype B His-tagged reverse transcriptase p66 Q475A mutant expressed in Escherichia coli M15 to IC50 for RNase H activity of recombinant His-tagged HIV-1 group M subtype B reverse transcriptase p66/p51 expressed in Escherichia coli M15 …
[2] = target: T1, Human immunodeficiency virus type 1 reverse transcriptase (Human immunodeficiency virus 1, UniProt Q72547); experiment: Inhibition of RNase H activity of recombinant HIV-1 reverse transcriptase p66/p51 expressed in Escherichia coli M15 using 5'-[gamma32P]ATP-labeled-tC5U RNA oligonucleotide/p12 DNA oligonucleotide hybrid as substrate incubated for 30 mins
[3] = test system: Human immunodeficiency virus type 1 reverse transcriptase (Human immunodeficiency virus 1), Q72547 [K540A]; experiment: Inhibition of recombinat HIV-1 group M subtype B His-tagged reverse transcriptase p66 K540A mutant expressed in Escherichia coli M15; settings: HIV-1 M:B
HIV-1 M:B [4] = experiment: Selectivity index, ratio of IC50 for recombinat HIV-1 group M subtype B His-tagged reverse transcriptase p66 W535A mutant expressed in Escherichia coli M15 to IC50 for RNase H activity of recombinant His-tagged HIV-1 group M subtype B reverse transcriptase p66/p51 expressed in Escherichia coli M15 …
HIV-1 M:B [5] = experiment: Selectivity index, ratio of IC50 for recombinat HIV-1 group M subtype B His-tagged reverse transcriptase p66 N474A mutant expressed in Escherichia coli M15 to IC50 for RNase H activity of recombinant His-tagged HIV-1 group M subtype B reverse transcriptase p66/p51 expressed in Escherichia coli M15 …
HIV-1 M:B [6] = experiment: Selectivity index, ratio of IC50 for recombinat HIV-1 group M subtype B His-tagged reverse transcriptase p66 Y501A mutant expressed in Escherichia coli M15 to IC50 for RNase H activity of recombinant His-tagged HIV-1 group M subtype B reverse transcriptase p66/p51 expressed in Escherichia coli M15 …
[7] = target: T1, Human immunodeficiency virus type 1 reverse transcriptase; experiment: Inhibition of RNase H activity of recombinant His-tagged HIV-1 group M subtype B reverse transcriptase p66/p51 expressed in Escherichia coli M15 using 18-nucleotide 3'-fluorescein-labeled RNA/5'-dabcyl-labeled DNA hybrid as substrate incubated for 1 hr; set-up: species or system HIV-1 M:B
[8] = test system: Human immunodeficiency virus 1; experiment: Antiviral activity against HIV1 infected in human HeLa-CD4-LTR-betagal cells assessed as inhibition of viral replication measured after 24 hrs by fluorescence based analysis; assay type: functional, organism-based; settings: Human immunodeficiency virus 1, 24 h
[9] = test system: Human immunodeficiency virus 1; experiment: Selectivity index, ratio of IC50 for wild type HIV1 subtype B NL4-3 6xHis-tagged integrase expressed in Escherichia coli BL21 (DE3) using DNA as substrate preincubated with enzyme for 1 hr followed by addition of recombinant 6xHis-tagged LEDGF/p75 expressed in Escherichia coli BL21 (DE3), DNA donor …
[10] = test system: Human immunodeficiency virus type 1 reverse transcriptase (Human immunodeficiency virus 1), Q72547 [R448A]; experiment: Inhibition of recombinat HIV-1 group M subtype B His-tagged reverse transcriptase p66 R448A mutant expressed in Escherichia coli M15; settings: HIV-1 M:B
[11] = test system: Human immunodeficiency virus type 1 reverse transcriptase (Human immunodeficiency virus 1), Q72547 [K451A]; experiment: Inhibition of recombinat HIV-1 group M subtype B His-tagged reverse transcriptase p66 K451A mutant expressed in Escherichia coli M15; settings: HIV-1 M:B
[12] = Selectivity index, ratio of CC50 for human HeLa cells expressing CD4-LTR-beta-gal assessed as reduction in cell viability measured after 24 hrs by CellTiter96 AQueous one solution cell proliferation assay to EC50 for HIV1 infected in human HeLa-CD4-LTR-betagal cells measured after 24 hrs by fluorescence based analysis; assay type: toxicity; settings: read-out: Ratio CC50/EC50
[13] = Cytotoxicity against human HeLa cells expressing CD4-LTR-beta-gal assessed as reduction in cell viability measured after 24 hrs by CellTiter96 AQueous one solution cell proliferation assay; assay type: cell-based
[14] = Stability of compound in 90% human serum at 5 mM and 37 degree C measured after 3 hrs by ESI-RP-HPLC analysis; assay type: ADME, cell-free; settings: 5000 µM
[15] = Drug metabolism in 90% human serum assessed as retro-Claisen adduct derived 1-(1-(4-fluorobenzyl)-4-phenyl-1H-pyrrol-3-yl)ethanone metabolite formation at 5 mM and 37 degree C measured after 3 hrs by ESI-RP-HPLC analysis; assay type: ADME, cell-free; settings: 5000 µM
[16] = target: Human immunodeficiency virus type 1 integrase (Human immunodeficiency virus 1, UniProt Q7ZJM1); experiment: Inhibition of wild type HIV1 subtype B NL4-3 6xHis-tagged integrase expressed in Escherichia coli BL21 (DE3) assessed as inhibition of 3'-processing and strand-transfer reactions using DNA as substrate preincubated with enzyme for 1 hr followed by addition of recombinant 6xHis-tagged LEDGF/p75 expressed in Escherichia coli BL21 (DE3), DNA donor substrate and DNA acceptor substrate and further …
Human immunodeficiency virus type 1 integrase, sequence (Q7ZJM1 whole entry): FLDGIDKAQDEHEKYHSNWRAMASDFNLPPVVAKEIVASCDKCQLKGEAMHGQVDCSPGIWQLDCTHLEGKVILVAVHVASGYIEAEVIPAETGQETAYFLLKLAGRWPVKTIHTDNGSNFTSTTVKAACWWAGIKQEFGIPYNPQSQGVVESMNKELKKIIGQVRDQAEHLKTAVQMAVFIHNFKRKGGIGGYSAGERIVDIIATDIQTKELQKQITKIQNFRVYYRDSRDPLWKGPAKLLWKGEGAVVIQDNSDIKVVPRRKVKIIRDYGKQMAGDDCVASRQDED

Structure (SMILES): CCOC(=O)/C(O)=C/C(=O)/C=C/c1cccn1Cc1ccccc1Cl
- Ratio IC50 (HIV-1 M:B [1]): > 5
- IC50 [2]: 7.3 µM
- inhibition [3]: Active
- Ratio IC50 (HIV-1 M:B [4]): > 5
- Ratio IC50 (HIV-1 M:B [5]): > 5
- Ratio IC50 (HIV-1 M:B [6]): > 5

Structure (SMILES): O=C(COc1ccc(-c2cn(Cc3cccc4ccccc34)cc2-c2cc(C(=O)O)[nH]n2)cc1)Nc1ccccc1
- IC50 [7]: 5.8 µM

Structure (SMILES): CCOC(=O)c1cc(-c2cn(Cc3ccc(F)cc3)cc2-c2ccc(OCc3ccccc3)cc2)n[nH]1
- Ratio IC50 (HIV-1 M:B [1]): > 5
- EC50 [8]: 4 to 41 µM
- inhibition [3]: inactive
- IC50 [7]: 5.4 µM
- Ratio IC50 [9]: > 18.5
- Ratio IC50 (HIV-1 M:B [4]): > 5
- inhibition [10]: inactive
- Ratio IC50 (HIV-1 M:B [5]): > 5
- inhibition [11]: inactive
- Ratio IC50 (HIV-1 M:B [6]): > 5

Structure (SMILES): CCOC(=O)c1cc(-c2cn(Cc3ccc(F)cc3)cc2-c2ccc(OCCCCc3ccccc3)cc2)n[nH]1
- Ratio IC50 (HIV-1 M:B [1]): > 5
- EC50 [8]: 4 to 41 µM
- selectivity ratio at 24 h [12]: > 10
- inhibition [3]: inactive
- IC50 [7]: 17.8 µM
- CC50 at 24 h [13]: > 200 µM
- Ratio IC50 [9]: > 5.6
- Ratio IC50 (HIV-1 M:B [4]): > 5
- inhibition [10]: inactive
- Ratio IC50 (HIV-1 M:B [5]): > 5
- inhibition [11]: inactive
- Ratio IC50 (HIV-1 M:B [6]): > 5

Structure (SMILES): CCOC(=O)c1cc(-c2cn(Cc3cccc4ccccc34)cc2-c2ccc(OCc3cccc4ccccc34)cc2)n[nH]1
- IC50 [7]: 4.15 µM

Structure (SMILES): O=C(O)c1cc(-c2ccccc2-c2ccccc2)n[nH]1
- IC50 [7]: > 100 µM

Structure (SMILES): O=C(O)c1cc(-c2cc[nH]c2)n[nH]1
- IC50 [7]: > 100 µM

Structure (SMILES): CCOC(=O)c1cc(-c2cn(Cc3ccc(F)cc3)cc2-c2ccc(OCC(=O)Nc3ccccc3)cc2)n[nH]1
- IC50 [7]: 6.8 µM

Structure (SMILES): CCOC(=O)c1cc(-c2cn(Cc3cccc4ccccc34)cc2-c2ccc(OCC(=O)Nc3ccccc3)cc2)n[nH]1
- IC50 [7]: 7.9 µM

Structure (SMILES): Cn1cc(-c2ccccc2)c(-c2cc(C(=O)O)[nH]n2)c1
- IC50 [7]: > 100 µM

Structure (SMILES): O=C(COc1ccc(-c2cn(Cc3ccc(F)cc3)cc2-c2cc(C(=O)O)[nH]n2)cc1)Nc1ccccc1
- IC50 [7]: 23 µM

Structure (SMILES): O=C(O)c1cc(-c2cn(Cc3ccc(F)cc3)cc2-c2ccc(OCCCCCc3ccccc3)cc2)n[nH]1
- IC50 [7]: 9.2 µM

Structure (SMILES): O=C(O)c1cc(-c2cn(CCCCc3ccccc3)cc2-c2ccccc2)n[nH]1
- IC50 [7]: 63 µM

Structure (SMILES): CCOC(=O)c1cc(-c2cn(CCCCc3ccccc3)cc2-c2ccccc2)n[nH]1
- IC50 [7]: 97 µM

Structure (SMILES): O=C(O)c1cc(-c2cn(Cc3ccc(F)cc3)cc2-c2ccccc2)n[nH]1
- IC50 [7]: 75 µM
- Stability [14]: Stable

Structure (SMILES): CCOC(=O)c1cc(-c2cn(Cc3ccc(F)cc3)cc2-c2ccc(OCC(=O)Nc3ccc(C(=O)O)cc3)cc2)n[nH]1
- IC50 [7]: 8.1 µM

Structure (SMILES): CCOC(=O)c1cc(-c2ccccc2)[nH]n1
- IC50 [7]: > 100 µM

Structure (SMILES): Cc1cc(C(=O)O)n[nH]1
- IC50 [7]: > 100 µM

Structure (SMILES): O=C(O)c1cc(-c2ccn(Cc3ccc(F)cc3)c2)n[nH]1
- IC50 [7]: > 100 µM

Structure (SMILES): CCOC(=O)c1cc(-c2cc[nH]c2)n[nH]1
- IC50 [7]: > 100 µM

Structure (SMILES): O=C(COc1ccc(-c2cn(Cc3ccc(F)cc3)cc2-c2cc(C(=O)O)[nH]n2)cc1)Nc1ccc(C(=O)O)cc1
- IC50 [7]: 70 µM

Structure (SMILES): CCOC(=O)c1cc(-c2cn(C)cc2-c2ccccc2)n[nH]1
- IC50 [7]: > 100 µM

Structure (SMILES): O=C(O)c1cc(-c2c[nH]cc2-c2ccccc2)n[nH]1
- IC50 [7]: > 100 µM

Structure (SMILES): O=C(O)c1cc(-c2cn(Cc3ccc(F)cc3)cc2-c2ccc(OCc3cccc4ccccc34)cc2)n[nH]1
- IC50 [7]: 4.5 µM

Structure (SMILES): O=C(O)c1cc(-c2cn(Cc3cccc4ccccc34)cc2-c2ccc(OCc3cccc4ccccc34)cc2)n[nH]1
- IC50 [7]: 1.73 µM

Structure (SMILES): O=C(O)c1cc(-c2cn(Cc3cccc4ccccc34)cc2-c2ccc(OCCCCc3ccccc3)cc2)n[nH]1
- IC50 [7]: 2.38 µM

Structure (SMILES): CCOC(=O)c1cc(-c2cn(Cc3ccc(F)cc3)cc2-c2ccc3ccccc3c2)n[nH]1
- Ratio IC50 (HIV-1 M:B [1]): > 5
- EC50 [8]: 4 to 41 µM
- selectivity ratio at 24 h [12]: > 10
- inhibition [3]: inactive
- IC50 [7]: 9.4 µM
- CC50 at 24 h [13]: > 200 µM
- Ratio IC50 [9]: > 10.6
- Ratio IC50 (HIV-1 M:B [4]): > 5
- inhibition [10]: inactive
- Ratio IC50 (HIV-1 M:B [5]): > 5
- inhibition [11]: inactive
- Ratio IC50 (HIV-1 M:B [6]): > 5

Structure (SMILES): CCOC(=O)c1cc(-c2c[nH]cc2-c2ccccc2)n[nH]1
- IC50 [7]: > 100 µM

Structure (SMILES): CCOC(=O)c1cc(-c2cn(Cc3cccc4ccccc34)cc2-c2ccccc2)n[nH]1
- IC50 [7]: 9.4 µM

Structure (SMILES): O=C(O)c1cc(-c2cn(Cc3ccc(F)cc3)cc2-c2ccc3ccccc3c2)n[nH]1
- IC50 [7]: 13.7 µM

Structure (SMILES): CCOC(=O)c1cc(C)n[nH]1
- IC50 [7]: > 100 µM

Structure (SMILES): O=C(O)c1cc(-c2cn(Cc3ccc(F)cc3)cc2-c2ccc(OCCCCc3ccccc3)cc2)n[nH]1
- IC50 [7]: 0.27 µM

Structure (SMILES): CCOC(=O)/C(O)=C/C(=O)c1cn(Cc2ccc(F)cc2)cc1-c1ccccc1
- Drug metabolism [15]: Metabolite_Detected
- Stability [14]: Unstable

Structure (SMILES): O=C(O)c1cc(-c2cn(Cc3ccc(F)cc3)cc2-c2ccc(OCc3ccccc3)cc2)n[nH]1
- IC50 [7]: 3.21 µM

Structure (SMILES): O=C(O)c1cc(-c2ccccc2)n[nH]1
- IC50 [7]: > 100 µM

Structure (SMILES): O=C(O)/C(O)=C/C(=O)c1cn(Cc2ccc(F)cc2)cc1-c1ccccc1
- Drug metabolism [15]: Metabolite_Detected
- Stability [14]: Unstable

Structure (SMILES): CCOC(=O)c1cc(-c2ccccc2-c2ccccc2)n[nH]1
- IC50 [7]: > 100 µM

Structure (SMILES): CCOC(=O)c1cc(-c2ccn(Cc3ccc(F)cc3)c2)n[nH]1
- IC50 [7]: > 100 µM

Structure (SMILES): O=C(O)c1cc(-c2cn(Cc3cccc4ccccc34)cc2-c2ccccc2)n[nH]1
- IC50 [7]: 25.3 µM

Structure (SMILES): CCOC(=O)c1cc(-c2cn(Cc3ccc(F)cc3)cc2-c2ccc(OCCCCCc3ccccc3)cc2)n[nH]1
- IC50 [7]: 25.8 µM

Structure (SMILES): CCOC(=O)c1cc(-c2cn(Cc3ccc(F)cc3)cc2-c2ccc(OCc3cccc4ccccc34)cc2)n[nH]1
- IC50 [7]: 5.5 µM

Structure (SMILES): CCOC(=O)c1cc(-c2cn(Cc3cccc4ccccc34)cc2-c2ccc(OCCCCc3ccccc3)cc2)n[nH]1
- IC50 [7]: 8.5 µM

Structure (SMILES): CCOC(=O)c1cc(-c2cn(Cc3ccc(F)cc3)cc2-c2ccccc2)n[nH]1
- Ratio IC50 (HIV-1 M:B [1]): > 5
- EC50 [8]: 4 µM
- inhibition [3]: inactive
- IC50 [16]: 75 µM
- IC50 [7]: 14.3 µM
- Ratio IC50 [9]: 5
- Ratio IC50 (HIV-1 M:B [4]): > 5
- inhibition [10]: inactive
- Ratio IC50 (HIV-1 M:B [5]): > 5
- Stability [14]: Stable
- inhibition [11]: Active
- Ratio IC50 (HIV-1 M:B [6]): > 5
